Some results are limits rather than exact numbers.

Chain of GST-tagged-Wee1 kinase (P30291 whole entry): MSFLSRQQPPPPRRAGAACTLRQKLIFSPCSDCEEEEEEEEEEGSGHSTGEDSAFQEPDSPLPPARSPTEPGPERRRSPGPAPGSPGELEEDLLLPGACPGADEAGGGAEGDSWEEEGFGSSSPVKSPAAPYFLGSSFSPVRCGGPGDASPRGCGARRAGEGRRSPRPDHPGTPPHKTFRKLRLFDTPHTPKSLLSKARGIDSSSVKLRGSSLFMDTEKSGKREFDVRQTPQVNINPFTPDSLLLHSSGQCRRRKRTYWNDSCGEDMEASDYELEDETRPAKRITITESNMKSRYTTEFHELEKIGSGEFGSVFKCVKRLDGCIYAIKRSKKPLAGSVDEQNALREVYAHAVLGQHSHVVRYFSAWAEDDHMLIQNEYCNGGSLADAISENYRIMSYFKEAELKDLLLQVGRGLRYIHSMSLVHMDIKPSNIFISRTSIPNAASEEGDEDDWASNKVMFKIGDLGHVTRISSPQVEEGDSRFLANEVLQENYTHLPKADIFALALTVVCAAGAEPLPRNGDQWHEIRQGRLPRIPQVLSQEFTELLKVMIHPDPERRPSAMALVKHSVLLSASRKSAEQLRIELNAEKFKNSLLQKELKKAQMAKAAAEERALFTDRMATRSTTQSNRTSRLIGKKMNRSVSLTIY

This assay deals with GST-tagged-Wee1 kinase (Homo sapiens, UniProt P30291). As to the kind of experiment: Wee1 time-resolved fluorescence equilibrium binding assay (displacement of Oregon Green-labeled ATP-competitive kinase probe). The procedure:
Wee1 kinase was assayed using a time-resolved fluorescence equilibrium binding assay monitoring displacement of a rapidly reversible Oregon Green-labeled ATP-competitive kinase probe (N-(2-(2-(2-(4-(4-(5-chloro-4-(2-(1-hydroxycyclobutyl)thiazol-5-yl)-1H-pyrrolo[2,3-b]pyridin-2-yl)phenyl)piperazin-1-yl)ethoxy)ethoxy)ethyl)-2′,7′-difluoro-3′,6′-dihydroxy-3-oxo-3H-spiro[isobenzofuran-1,9′-xanthene]-5-carboxamide) by competitive Wee1 inhibitors.
In general, Ki refers to a measure of affinity in units of concentration, obtained from inhibition or displacement. As to `Cc1cccc(-c2nn(-c3ccccc3C)c(=O)c3cnc(Nc4ccc(N5CCN(C)CC5)cc4)nc23)c1` [Example 52, 6-(2-methylphenyl)-8-(3-methylphenyl)-2-{[4-(4-methylpiperazin-1-yl)phenyl]amino}pyrimido[4,5-d]pyridazin-5(6H)-one], affinity was put at a Ki of 1 nM. As for `CC1(C)CNCc2cc(Nc3ncc4c(=O)n(CCO)nc(-c5ccccn5)c4n3)ccc21` [Example 283, 2-[(4,4-dimethyl-1,2,3,4-tetrahydroisoquinolin-7-yl)amino]-6-(2-hydroxyethyl)-8-(pyridin-2-yl)pyrimido[4,5-d]pyridazin-5(6H)-one], the figure is 30 nM; as for `CN1CCN(c2ccc(Nc3ncc4c(=O)n(-c5c(Cl)cccc5Cl)nc(C5CCNCC5)c4n3)cc2)CC1` [Example 148, 6-(2,6-dichlorophenyl)-2-{[4-(4-methylpiperazin-1-yl)phenyl]amino}-8-(piperidin-4-yl)pyrimido[4,5-d]pyridazin-5(6H)-one], 16 nM. The compound `CN1CCN(c2ccc(Nc3ncc4c(=O)n(-c5ccccc5Cl)nc(-c5ccc(-c6ncccn6)cc5)c4n3)cc2)CC1` [Example 61, 6-(2-chlorophenyl)-2-{[4-(4-methylpiperazin-1-yl)phenyl]amino}-8-[4-(pyrimidin-2-yl)phenyl]pyrimido[4,5-d]pyridazin-5(6H)-one] came in with a Ki of under 1 nM. The compound `CC(C)n1nc(-c2ccccn2)c2nc(Nc3ccc4c(c3)CN(C)CC43CC3)ncc2c1=O` [Example 274, 2-[(2′-methyl-2′,3′-dihydro-1′H-spiro[cyclopropane-1,4′-isoquinolin]-7′-yl)amino]-6-(propan-2-yl)-8-(pyridin-2-yl)pyrimido[4,5-d]pyridazin-5(6H)-one] showed a Ki of 179 nM.

As to `O=c1c2cnc(Nc3ccc4c(c3)CNCC4)nc2c(-c2ccncc2)nn1-c1c(Cl)cccc1Cl` [Example 224, 6-(2,6-dichlorophenyl)-8-(pyridin-4-yl)-2-(1,2,3,4-tetrahydroisoquinolin-7-ylamino)pyrimido[4,5-d]pyridazin-5(6H)-one], the Ki was 0.07 nM. As for `Cc1ccccc1-n1nc(-c2cccs2)c2nc(Nc3ccc(N4CCN(C(C)C)CC4)cc3)ncc2c1=O` [Example 118, 2-{[4-(4-isopropylpiperazin-1-yl)phenyl]amino}-6-(2-methylphenyl)-8-(2-thienyl)pyrimido[4,5-d]pyridazin-5(6H)-one], the figure is 1 nM; as for `CN1CCN(c2ccc(Nc3ncc4c(=O)n(-c5c(Cl)cccc5Cl)nc(-c5ccc(C(=O)O)cc5)c4n3)cc2)CC1` [Example 290, 4-[6-(2,6-dichlorophenyl)-2-{[4-(4-methylpiperazin-1-yl)phenyl]amino}-5-oxo-5,6-dihydropyrimido[4,5-d]pyridazin-8-yl]benzoic acid], 0.33 nM.

Regarding `Cc1ccccc1-n1nc(-c2cccs2)c2nc(Nc3ccc(S(=O)(=O)N4CCOCC4)cc3)ncc2c1=O` [Example 129, 6-(2-methylphenyl)-2-{[4-(morpholin-4-ylsulfonyl)phenyl]amino}-8-(2-thienyl)pyrimido[4,5-d]pyridazin-5(6H)-one], the Ki is over 3140 nM. For the compound `CN1Cc2cc(Nc3ncc4c(=O)n(-c5ccccc5Cl)nc(-c5ccccc5)c4n3)ccc2C2(CC2)C1` [Example 53, 6-(2-chlorophenyl)-2-[(2′-methyl-2′,3′-dihydro-1′H-spiro[cyclopropane-1,4′-isoquinolin]-7′-yl)amino]-8-phenylpyrimido[4,5-d]pyridazin-5(6H)-one], the Ki turned out to be 0.1 nM. This lies in the sub-nanomolar range.

`CN1CCN(c2ccc(Nc3ncc4c(=O)n(-c5c(Cl)cccc5Cl)nc(-c5ccn(CCCl)n5)c4n3)cc2)CC1` [Example 234, 8-[1-(2-chloroethyl)-1H-pyrazol-3-yl]-6-(2,6-dichlorophenyl)-2-{[4-(4-methylpiperazin-1-yl)phenyl]amino}pyrimido[4,5-d]pyridazin-5(6H)-one] had a Ki of 0.3 nM. As for `Cc1ccccc1-n1nc(-c2ccco2)c2nc(Nc3ccc(CN(C)C)cc3)ncc2c1=O` [Example 106, 2-({4-[(dimethylamino)methyl]phenyl}amino)-8-(2-furyl)-6-(2-methylphenyl)pyrimido[4,5-d]pyridazin-5(6H)-one], the figure is 5 nM. The value for `O=c1c2cnc(Nc3ccc(N4CCN(C5CCC5)CC4)cc3)nc2c(-c2ccncc2)nn1-c1c(Cl)cccc1Cl` [Example 301, 2-{[4-(4-cyclobutylpiperazin-1-yl)phenyl]amino}-6-(2,6-dichlorophenyl)-8-(pyridin-4-yl)pyrimido[4,5-d]pyridazin-5(6H)-one] was 2.7 nM; that for `C=CCn1nc(-c2ccccc2)c2nc(Nc3ccc(N4CCN(C(C)C)CC4)c(OC)c3)ncc2c1=O` [Example 114, 6-allyl-2-{[4-(4-isopropylpiperazin-1-yl)-3-methoxyphenyl]amino}-8-phenylpyrimido[4,5-d]pyridazin-5(6H)-one] was 3 nM. Compound `COc1ccccc1-n1nc(C2CCCC2)c2nc(Nc3ccc(N4CCN(C)CC4)cc3)ncc2c1=O` [Example 57, 8-cyclopentyl-6-(2-methoxyphenyl)-2-{[4-(4-methylpiperazin-1-yl)phenyl]amino}pyrimido[4,5-d]pyridazin-5(6H)-one] displayed a Ki of 7 nM. The value for `O=c1c2cnc(Nc3ccc4c(c3)CNCC4)nc2c(C2CC2)nn1-c1c(Cl)cccc1Cl` [Example 390, 8-cyclopropyl-6-(2,6-dichlorophenyl)-2-(1,2,3,4-tetrahydroisoquinolin-7-ylamino)pyrimido[4,5-d]pyridazin-5(6H)-one] was 0.41 nM; that for `Cc1nn(-c2c(Cl)cccc2Cl)c(=O)c2cnc(Nc3cccc(N4CCN(C5COC5)CC4)c3)nc12` [Example 512, 6-(2,6-dichlorophenyl)-8-methyl-2-({3-[4-(oxetan-3-yl)piperazin-1-yl]phenyl}amino)pyrimido[4,5-d]pyridazin-5(6H)-one] was 1.4 nM. As for `Cc1cccc(Cl)c1-n1nc(C)c2nc(Nc3ccc4c(c3)CN(CCO)CC4)ncc2c1=O` [Example 499, 6-(2-chloro-6-methylphenyl)-2-{[2-(2-hydroxyethyl)-1,2,3,4-tetrahydroisoquinolin-7-yl]amino}-8-methylpyrimido[4,5-d]pyridazin-5(6H)-one], the Ki turned out to be 0.21 nM. The compound `Cc1cccc(Cl)c1-n1nc(C)c2nc(Nc3ccc4c(c3)CNCC4(C)C)ncc2c1=O` [Example 497, 6-(2-chloro-6-methylphenyl)-2-[(4,4-dimethyl-1,2,3,4-tetrahydroisoquinolin-7-yl)amino]-8-methylpyrimido[4,5-d]pyridazin-5(6H)-one] showed a Ki of 0.26 nM. The Ki values of the last two compounds are within 1.5-fold of each other. As for `Cn1cnc(-c2nn(-c3c(Cl)cccc3Cl)c(=O)c3cnc(Nc4ccc(N5CCNCC5)cc4)nc23)c1` [Example 340, 6-(2,6-dichlorophenyl)-8-(1-methyl-1H-imidazol-4-yl)-2-{[4-(piperazin-1-yl)phenyl]amino}pyrimido[4,5-d]pyridazin-5(6H)-one], the figure is 0.32 nM; as for `Cc1ccccc1-n1nc(-c2ccco2)c2nc(Nc3ccc(N4CCCC4=O)cc3)ncc2c1=O` [Example 135, 8-(2-furyl)-6-(2-methylphenyl)-2-{[4-(2-oxopyrrolidin-1-yl)phenyl]amino}pyrimido[4,5-d]pyridazin-5(6H)-one], 8 nM; as for `CN1CCN(c2ccc(Nc3ncc4c(=O)n(-c5ccccc5Cl)nc(C5CCCC5)c4n3)cc2)CC1` [Example 55, 6-(2-chlorophenyl)-8-cyclopentyl-2-{[4-(4-methylpiperazin-1-yl)phenyl]amino}pyrimido[4,5-d]pyridazin-5(6H)-one], 2 nM.

As to `Cc1nn(C)c(=O)c2cnc(Nc3ccc(N4CCN(C)CC4)cc3)nc12` [Example 1, 6,8-dimethyl-2-{[4-(4-methylpiperazin-1-yl)phenyl]amino}pyrimido[4,5-d]pyridazin-5(6H)-one], the affinity, expressed as Ki, was 1900 nM. In turn, `CNCc1cccc(-c2nn(-c3c(Cl)cccc3Cl)c(=O)c3cnc(Nc4ccc(N5CCN(C)CC5)cc4)nc23)c1` [Example 183, 6-(2,6-dichlorophenyl)-8-{3-[(methylamino)methyl]phenyl}-2-{[4-(4-methylpiperazin-1-yl)phenyl]amino}pyrimido[4,5-d]pyridazin-5(6H)-one] showed a Ki of 0.02 nM. As for `Cc1nn(-c2c(Cl)cccc2Cl)c(=O)c2cnc(Nc3ccc(N4CCN(C5COC5)CC4)cc3)nc12` [Example 445, 6-(2,6-dichlorophenyl)-8-methyl-2-({4-[4-(oxetan-3-yl)piperazin-1-yl]phenyl}amino)pyrimido[4,5-d]pyridazin-5(6H)-one], the figure is 0.33 nM; as for `CN1CCN(c2ccc(Nc3ncc4c(=O)n(-c5ccccc5)nc(-c5ccccc5F)c4n3)cc2)CC1` [Example 37, 8-(2-fluorophenyl)-2-{[4-(4-methylpiperazin-1-yl)phenyl]amino}-6-phenylpyrimido[4,5-d]pyridazin-5(6H)-one], 18 nM. `CN1CCN(c2ccc(Nc3ncc4c(=O)n(-c5ccccc5)nc(-c5cnn(C)c5)c4n3)cc2)CC1` [Example 85, 2-{[4-(4-methylpiperazin-1-yl)phenyl]amino}-8-(1-methyl-1H-pyrazol-4-yl)-6-phenylpyrimido[4,5-d]pyridazin-5(6H)-one]: the affinity corresponds to a Ki of 24.7 nM. The value for `C=CCn1nc(-c2ccco2)c2nc(Nc3ccc4c(c3)CN(C)CC43CC3)ncc2c1=O` [Example 144, 6-allyl-8-(2-furyl)-2-[(2′-methyl-2′,3′-dihydro-1′H-spiro[cyclopropane-1,4′-isoquinolin]-7′-yl)amino]pyrimido[4,5-d]pyridazin-5(6H)-one] was 2 nM; that for `CN1CCN(c2ccc(Nc3ncc4c(=O)n(-c5ccncc5Cl)nc(-c5ccncc5)c4n3)cc2)CC1` [Example 382, 6-(3-chloropyridin-4-yl)-2-{[4-(4-methylpiperazin-1-yl)phenyl]amino}-8-(pyridin-4-yl)pyrimido[4,5-d]pyridazin-5(6H)-one] was 7.6 nM.

The values are drawn from patent publication US8796289B2 (AbbVie Inc., priority 2011, dated 2014).
